Test results as given in patent publication US20020169101A1, “Treatment of sexual dysfunction” (priority 1999, published 2002).

What was measured:
[1] = test system: sexual behaviour of sexually dysfunctional male rats; assay: Sexual behaviour of fluoxetine-induced sexually dysfunctional male rats; assay type: in vivo, rat; details: fluoxetine-pretreated rats, Compound (1) 15 mg/kg or yohimbine 2 mg/kg i.p. 1 h before test
Description: Sprague Dawley male rats (Charles River, UK) were kept, 4 rats per cage, in a reversed lighting regime (12:12 hours, lights off at 5.00 h), with free access to food and water. The rats were pre-selected by being presented with a receptive female at 4 days intervals, i.e. every third day (having 2 clear days between presentations) until completing 6-7 trials of baseline determination. The animals showing consistently vigorous behaviour (ejaculatory latencies <300s) were chosen for further experiments. Animals were treated for 3 consecutive days with either vehicle (water) or fluoxetine (20 mg/kg, i.p., in a 2 ml/kg dosing volume). On the fourth day, the animals treated with water received vehicle (veh+veh) and the animals treated with fluoxetine received one of the three following treatments: Compound (1) (15 mg/kg, dissolved in 50% 2-hydroxypropyl-β-cyclodextrin in saline), vehicle (cyclodextrine), or yohimbine (2 mg/kg dissolved in water). All treatments were administered i.p. in a 1 ml/kg volume, 1 h before tests.
For all the sexual behaviour tests, the males were placed in an observation arena (50-60 cm diameter), starting 5 hours into the dark cycle and observed under red illumination. Three to 4 minutes after placing the male in the arena, a receptive female (ovariectomised, bearing a 7 mm Silastic implant of oestradiol benzoate) was introduced to the arena and the following parameters noted: Mount Latency: time (in seconds) taken between introduction of female and first mount. A maximum time of 15 minutes (900 seconds) was allowed, and the test terminated if no mounts were recorded within that time (FIG. 16), Ejaculation Latency: time (in seconds) taken from first intromission to ejaculation. A maximum time of 30 minutes (1800 seconds) was given, and the test terminated if ejaculation was not achieved in that time (FIG. 17), Percentage of males achieving ejaculation within 30 minutes was calculated (FIG. 18).
A one-way ANOVA followed by Dunnett's t test was used to compare the fluoxetine+vehicle group and other groups for mount and ejaculatory latencies. Percentage of animals ejaculating was analysed using a Chi-square test followed by Fisher's test. (*: P<0.05, **: P<0.01, ***: P<0.001; n=15-19).

[2] = biological target: T1, human NMB receptor (BB1) (Homo sapiens, UniProt P28336); assay: BB1 binding assay ([125I][Tyr4]bombesin displacement, CHO-K1 membranes); details: read-out: hBB1 Ki
T1 construct: expressed in transfected cells; membranes prepared from the cells
T1 sequence (P28336 whole entry): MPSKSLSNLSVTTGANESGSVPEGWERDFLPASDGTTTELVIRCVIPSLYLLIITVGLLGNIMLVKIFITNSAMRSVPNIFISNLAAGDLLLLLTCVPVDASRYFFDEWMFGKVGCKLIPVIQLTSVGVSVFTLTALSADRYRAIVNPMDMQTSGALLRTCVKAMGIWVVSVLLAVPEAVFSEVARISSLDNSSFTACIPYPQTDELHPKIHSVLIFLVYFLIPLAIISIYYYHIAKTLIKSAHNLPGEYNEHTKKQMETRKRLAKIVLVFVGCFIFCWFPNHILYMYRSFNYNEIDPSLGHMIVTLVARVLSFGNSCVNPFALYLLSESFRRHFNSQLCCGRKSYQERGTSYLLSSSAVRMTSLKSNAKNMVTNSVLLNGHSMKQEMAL
Method in brief: (§1)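 Competition against <0.1 nM [125I][Tyr4]bombesin, 60 min for the NMB receptor and 90 min for the GRP receptor, using homogenised membranes of human-receptor-expressing CHO-K1 cells in pH 7.4 Tris buffer. Bound label was filtered and gamma-counted, with 1 μM bombesin as nonspecific. Ki values came from IC50 via Cheng-Prusoff.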

[3] = biological target: T2, human GRP receptor (BB2) (Homo sapiens, UniProt P30550); assay: BB2 binding assay ([125I][Tyr4]bombesin displacement, CHO-K1 membranes); details: read-out: hBB2 Ki
T2 construct: expressed in transfected cells; membranes prepared from the cells
T2 sequence (P30550 whole entry): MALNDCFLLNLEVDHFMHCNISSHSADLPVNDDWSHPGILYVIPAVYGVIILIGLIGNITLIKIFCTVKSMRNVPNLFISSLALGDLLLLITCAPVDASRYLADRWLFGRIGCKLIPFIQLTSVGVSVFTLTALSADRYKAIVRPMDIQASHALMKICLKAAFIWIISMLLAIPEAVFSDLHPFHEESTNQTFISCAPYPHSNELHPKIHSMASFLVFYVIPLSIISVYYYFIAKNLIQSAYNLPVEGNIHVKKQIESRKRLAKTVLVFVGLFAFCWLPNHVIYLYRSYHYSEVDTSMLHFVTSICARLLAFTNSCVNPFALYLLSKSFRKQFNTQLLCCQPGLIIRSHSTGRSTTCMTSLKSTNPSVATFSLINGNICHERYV
Method in brief: as §1

SMILES	Mount Latency ([1]; vs fluoxetine+vehicle (FIG. 16))	Ejaculation Latency ([1]; vs fluoxetine+vehicle (FIG. 17))	percentage of animals ejaculating ([1]; vs fluoxetine+vehicle (FIG. 18))	Ki [2] [nM]	Ki [3] [nM]
COc1ccc(C2(CNC(=O)[C@](C)(Cc3c[nH]c4ccccc34)NC(=O)Nc3ccc([N+](=O)[O-])cc3)CCCCC2)nc1 [Compound (1), (S) 3-(1H-Indol-3-yl)-N-[1-(5-methoxy-pyridin-2-yl)-cyclohexyl-methyl]-2-methyl-2-[3-(4-nitro-phenyl)-ureido]-propionamide]	significantly decreased	significantly decreased	increasing the percentage of animals ejaculating		
C[C@@](Cc1c[nH]c2ccccc12)(NC(=O)Nc1ccc([N+](=O)[O-])cc1)C(=O)NCC1(c2ccc(N)cc2)CCCCC1 [Compound 3, (2S)-N-{[1-(4-aminophenyl)cyclohexyl]methyl}-3-(1H-indol-3-yl)-2-methyl-2-{[(4-nitroanilino)-carbonyl]amino}propanamide]				0.25	46
